This is an account of results in patent US7294637B2 (Sepracor, Inc., priority 2000, dated 2007).

The IC50 is the concentration that gives 50% inhibition.

Where two headings read alike, the source gives them in different places.

The target of test [1] is serotonin transporter (Homo sapiens, UniProt P31645). The experiment in a line: 5-HT uptake: displacement of serotonin ligands in vitro (methods of Gu et al.). It counts as binding.
Test [2] addresses norepinephrine transporter (Homo sapiens, UniProt P23975). Put plainly: NE uptake: displacement of norephinephrine ligands in vitro (methods of Galli et al.). It counts as binding.
Test [3] concerns the target dopamine transporter (Homo sapiens, UniProt Q01959). Put plainly: DA uptake: displacement of dopamine ligands in vitro (methods of Gu et al.).
[4] abbreviates: displacement of serotonin ligands in vitro, read-out: 5-HT Uptake, Uptake Profile (IC50).
Setting [5] is: NE Uptake, Uptake Profile (IC50, nM).
Where [6] appears, read: DA Uptake, Uptake Profile (IC50, nM), displacement of dopamine ligands in vitro.
The mark [7] stands for this setting: read-out: NE Uptake, Uptake Profile (IC50).
[8] abbreviates: 5-HT Uptake, Uptake Profile (IC50, nM).

dopamine transporter, sequence (Q01959 whole entry): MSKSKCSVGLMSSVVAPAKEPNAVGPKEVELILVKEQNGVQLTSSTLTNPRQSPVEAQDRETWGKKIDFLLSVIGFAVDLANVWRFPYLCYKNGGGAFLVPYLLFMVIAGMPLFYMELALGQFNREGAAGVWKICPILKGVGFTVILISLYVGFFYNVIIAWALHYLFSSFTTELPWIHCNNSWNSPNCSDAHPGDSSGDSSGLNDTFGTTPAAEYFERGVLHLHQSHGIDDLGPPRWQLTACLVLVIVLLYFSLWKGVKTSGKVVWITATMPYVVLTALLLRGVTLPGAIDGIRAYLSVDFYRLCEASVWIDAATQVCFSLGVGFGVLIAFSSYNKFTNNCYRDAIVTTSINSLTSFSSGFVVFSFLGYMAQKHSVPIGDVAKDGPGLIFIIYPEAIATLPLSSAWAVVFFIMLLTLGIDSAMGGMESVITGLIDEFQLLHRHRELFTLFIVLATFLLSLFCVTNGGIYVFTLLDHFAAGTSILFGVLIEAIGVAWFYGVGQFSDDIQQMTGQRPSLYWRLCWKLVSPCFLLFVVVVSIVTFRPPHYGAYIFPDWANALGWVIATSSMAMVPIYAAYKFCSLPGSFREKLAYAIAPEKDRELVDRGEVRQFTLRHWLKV
serotonin transporter, sequence (P31645 whole entry): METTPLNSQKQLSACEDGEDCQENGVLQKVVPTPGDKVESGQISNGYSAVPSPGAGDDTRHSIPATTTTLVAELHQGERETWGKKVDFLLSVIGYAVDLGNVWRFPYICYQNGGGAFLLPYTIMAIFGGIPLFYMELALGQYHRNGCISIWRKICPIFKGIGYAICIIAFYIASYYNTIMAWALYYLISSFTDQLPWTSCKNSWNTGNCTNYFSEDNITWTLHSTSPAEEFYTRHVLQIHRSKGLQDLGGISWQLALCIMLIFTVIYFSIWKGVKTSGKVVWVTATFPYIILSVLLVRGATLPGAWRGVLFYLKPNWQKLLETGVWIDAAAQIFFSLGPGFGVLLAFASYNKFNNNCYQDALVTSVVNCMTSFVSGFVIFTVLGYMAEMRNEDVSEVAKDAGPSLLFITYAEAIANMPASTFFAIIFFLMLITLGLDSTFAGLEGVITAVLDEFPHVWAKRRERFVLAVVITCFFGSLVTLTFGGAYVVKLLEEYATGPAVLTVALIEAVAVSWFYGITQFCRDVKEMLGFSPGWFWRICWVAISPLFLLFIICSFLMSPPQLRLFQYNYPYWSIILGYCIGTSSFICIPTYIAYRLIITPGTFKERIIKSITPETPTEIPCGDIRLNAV
norepinephrine transporter, sequence (P23975 whole entry): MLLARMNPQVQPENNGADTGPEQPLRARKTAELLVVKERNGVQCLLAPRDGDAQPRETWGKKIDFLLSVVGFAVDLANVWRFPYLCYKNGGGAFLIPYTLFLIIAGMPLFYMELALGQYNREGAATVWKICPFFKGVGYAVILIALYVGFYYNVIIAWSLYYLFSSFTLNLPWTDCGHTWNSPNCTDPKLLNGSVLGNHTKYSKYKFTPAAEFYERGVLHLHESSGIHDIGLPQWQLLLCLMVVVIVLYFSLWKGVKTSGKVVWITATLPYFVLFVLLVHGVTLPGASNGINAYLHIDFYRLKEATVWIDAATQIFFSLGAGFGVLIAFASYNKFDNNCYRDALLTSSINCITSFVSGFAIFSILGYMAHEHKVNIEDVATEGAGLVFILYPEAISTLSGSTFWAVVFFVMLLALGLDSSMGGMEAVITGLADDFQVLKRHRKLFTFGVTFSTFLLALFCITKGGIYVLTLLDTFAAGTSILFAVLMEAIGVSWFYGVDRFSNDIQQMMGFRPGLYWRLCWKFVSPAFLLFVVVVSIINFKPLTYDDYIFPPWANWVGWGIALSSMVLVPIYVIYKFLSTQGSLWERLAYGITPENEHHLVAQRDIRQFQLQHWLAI

Turning to `FC(F)(F)c1ccc(OCC2CCCN(CC3COc4ccccc4O3)C2)cc1` (single isomer, unassigned) [compound 179, 1-(2,3-Dihydro-benzo[1,4]dioxin-2-ylmethyl)-3-(4-trifluoromethyl-phenoxymethyl)-piperidine], the IC50 in test [1] (setting [4]) was less than 1000 nM; in test [2] (setting [5]) it was less than 1000 nM; in test [3] (setting [6]), more than 1000 nM.
In the case of `OC(CN1CCCC(COc2ccc(C(F)(F)F)cc2)C1)C1(c2ccccc2OC(F)(F)F)CCC1` (single isomer, unassigned) [compound 228, 1-[1-(2-Trifluoromethoxy-phenyl)-cyclobutyl]-2-[3-(4-trifluoromethyl-phenoxymethyl)-piperidin-1-yl]-ethanol], the IC50 in test [1] (setting [4]), in test [2] (setting [7]) and in test [3] (setting [6]) was more than 1000 nM each time.
Turning to `OC(CN1CCCC(COc2ccc(C(F)(F)F)cc2)C1)c1ccc(Cl)cc1` (stereo not drawn) [compound 136, 1-(4-Chloro-phenyl)-2-[3-(4-trifluoromethyl-phenoxymethyl)-piperidin-1-yl]-ethanol], the IC50 was less than 100 nM in test [1] (setting [4]), less than 1000 nM in test [2] (setting [5]) and less than 1000 nM in test [3] (setting [6]).
Regarding `OC(CN1CCCC(COc2ccc(C(F)(F)F)cc2)C1)C1(c2ccc(Cl)cc2)CCC1` (stereo not drawn) [compound 24, 1-[1-(4-Chlorophenyl)cyclobutyl]-2-[3-(4-trifluoromethylphenoxymethyl)piperidin-1-yl]ethanol], the IC50 in test [1] (setting [4]) was less than 1000 nM; in test [2] (setting [5]) it was less than 10 nM; in test [3] (setting [6]), less than 10 nM.
Take `COC(CN1CCC[C@@H](CCc2ccccc2)C1)c1ccc(Cl)cc1` (stereo partly drawn) [compound 196, 1-[2-(4-Chloro-phenyl)-2-methoxy-ethyl]-3-(R)-phenethyl-piperidine]: the 50% inhibitory concentration (IC50) in test [1] (setting [4]) is less than 10 nM; in test [2] (setting [5]) it was less than 100 nM; in test [3] (setting [6]), less than 100 nM.
On to `Fc1ccc(OC[C@@H]2CCCN(CC3(c4ccc(Cl)cc4)CCC3)C2)cc1` [compound 133, (R)-1-[1-(4-Chloro-phenyl)-cyclobutylmethyl]-3-(4-fluoro-phenoxymethyl)-piperidine], for which the figures for the IC50 in test [1] (setting [8]), in test [2] (setting [5]) and in test [3] (setting [6]) were more than 1000 nM, less than 1000 nM and less than 1000 nM, respectively.
Turning to `OC(CN1CCCC(CCc2ccc(C(F)(F)F)cc2)C1)C1(c2ccc(Cl)cc2)CCC1` (single isomer, unassigned) [compound 195, 1-[1-(4-Chloro-phenyl)-cyclobutyl]-2-{3-[2-(4-trifluoromethyl-phenyl)-ethyl]-piperidin-1-yl}-ethanol], the IC50 was less than 1000 nM in test [1] (setting [4]), less than 1000 nM in test [2] (setting [5]) and less than 100 nM in test [3] (setting [6]).
Take `FC(F)(F)c1ccc(OCC2CNCCCO2)cc1` (stereo not drawn) [compound 15, 2-(4-trifluoromethyl-phenoxymethyl)-[1,4]oxazepane]: the IC50 in test [1] (setting [4]), in test [2] (setting [7]) and in test [3] (setting [6]) was more than 1000 nM in each case.
`CC(CN1CCCC(COc2ccc(C(F)(F)F)cc2)C1)C(O)c1ccc(Cl)cc1` (stereo not drawn) [compound 218, 1-(4-Chloro-phenyl)-2-methyl-3-[3-(4-trifluoromethyl-phenoxymethyl)-piperidin-1-yl]-propan-1-ol]: the IC50 in test [1] (setting [4]) is less than 1000 nM; in test [2] (setting [5]), more than 1000 nM; in test [3] (setting [6]) it was less than 10 nM.
For `O=C(CC1CCCN(CC2(c3ccc(Cl)cc3)CCC2)C1)c1ccccc1` (stereo in doubt) [compound 183, (S)-[2-{1-[1-(4-Chloro-phenyl)-cyclobutylmethyl]-piperidin-3-yl}-1-phenyl-ethanone]], in that order: less than 1000 nM, less than 1000 nM and less than 1000 nM.
With `CN(C)CC(Oc1ccc(C(F)(F)F)cc1)C1CCCN(CC2(c3ccc(Cl)cc3)CCC2)C1` (racemic) [compound 175], the IC50 was less than 1000 nM in test [1] (setting [4]), more than 1000 nM in test [2] (setting [5]) and less than 1000 nM in test [3] (setting [6]).
On to `FC(F)(F)c1ccc(OCC2CCCN(CC3COc4ccccc4O3)C2)cc1` (single isomer, unassigned) [compound 178, 1-(2,3-Dihydro-benzo[1,4]dioxin-2-ylmethyl)-3-(4-trifluoromethyl-phenoxymethyl)-piperidine], for which the IC50 in test [1] (setting [4]), in test [2] (setting [5]) and in test [3] (setting [6]) was less than 1000 nM in each case.
For `FC(F)(F)c1ccc(OCC2CN(CC3(c4ccc(Cl)cc4)CCC3)CCCO2)cc1` (stereo not drawn) [compound 11], the IC50 in test [1] (setting [4]) is more than 1000 nM; in test [2] (setting [5]), more than 1000 nM; in test [3] (setting [6]) it was less than 1000 nM.
As for `CC(C)(CN1CCCC(CO)C1)c1ccc(Cl)cc1` (stereo not drawn) [compound 80], the IC50 in test [1] (setting [4]), in test [2] (setting [7]) and in test [3] (setting [6]) was more than 1000 nM throughout.
Take `COC(CC1CCCN(CC2(c3ccc(Cl)cc3)CCC2)C1)c1ccccc1` (stereo in doubt) [compound 184, (S)-[1-[1-(4-Chloro-phenyl)-cyclobutylmethyl]-3-(2-methoxy-2-phenyl-ethyl)-piperidine]]: the IC50 in test [1] (setting [4]), in test [2] (setting [5]) and in test [3] (setting [6]) was less than 1000 nM in each case.
As for `CC(CC1CCCN(CC2(c3ccc(Cl)cc3)CCC2)C1)c1ccccc1` (stereo in doubt) [compound 186, (S)-1-[1-(4-Chloro-phenyl)-cyclobutylmethyl]-3-(2-phenyl-propyl)-piperidine], the IC50 in test [1] (setting [4]), in test [2] (setting [5]) and in test [3] (setting [6]) was less than 1000 nM in each case.
On to `CNC(CN1CCC[C@@H](CCc2ccccc2)C1)c1ccc(Cl)cc1` (stereo partly drawn) [compound 213, [1-(4-Chloro-phenyl)-2-(3(R)-phenethyl-piperidin-1-yl)-ethyl]-methyl-amine], for which the IC50 in test [1] (setting [4]) was less than 100 nM; in test [2] (setting [5]) it was less than 1000 nM; in test [3] (setting [6]) it was less than 1000 nM.
As for `COc1ccccc1C1(C(O)CN2CCCC(COc3ccc(C(F)(F)F)cc3)C2)CCC1` (stereo not drawn) [compound 164], the IC50 in test [1] (setting [4]) is less than 100 nM; in test [2] (setting [5]) it was less than 1000 nM; in test [3] (setting [6]), less than 10 nM.
For `OC(CN1CCCC(COc2ccc(C(F)(F)F)cc2)C1)C1(c2ccc(OC(F)(F)F)cc2)CCC1` (stereo not drawn) [compound 206, 1-[1-(4-Trifluoromethoxy-phenyl)-cyclobutyl]-2-[3-(4-trifluoromethyl-phenoxymethyl)-piperidin-1-yl]-ethanol], the IC50 in test [1] (setting [4]) was less than 1000 nM; in test [2] (setting [5]), less than 1000 nM; in test [3] (setting [6]) it was less than 100 nM.
Turning to `OC(CN1CCCC(CCc2ccc(C(F)(F)F)cc2)C1)c1ccc(Cl)cc1` (single isomer, unassigned) [compound 151, 1-(4-Chloro-phenyl)-2-{3-[2-(4-trifluoromethyl-phenyl)-ethyl]-piperidin-1-yl}-ethanol], the IC50 in test [1] (setting [4]), in test [2] (setting [5]) and in test [3] (setting [6]) was less than 1000 nM throughout.
For the compound `FC(F)(F)c1ccc(OCC2CCCN(CCc3c[nH]c4ccccc34)C2)cc1` (stereo not drawn) [compound 180, 3-{2-[3-(4-Trifluoromethyl-phenoxymethyl)-piperidin-1-yl]-ethyl}-1H-indole], the IC50 in test [1] (setting [4]), in test [2] (setting [5]) and in test [3] (setting [6]) was less than 1000 nM throughout.
In the case of `CN(C)CC(Oc1ccc(C(F)(F)F)cc1)C1CCCN(C(=O)C2(c3ccc(Cl)cc3)CCC2)C1` (racemic) [compound 173], the concentration for half-maximal inhibition (IC50) in test [1] (setting [4]) was less than 100 nM; in test [2] (setting [5]) it was more than 1000 nM; in test [3] (setting [6]) it was more than 1000 nM.
Consider `COc1ccc(C2(CN3CCC[C@@H](COc4ccc(OC(F)(F)F)cc4)C3)CCC2)cc1` [compound 170, (R)-1-[1-(4-Methoxy-phenyl)-cyclobutylmethyl]-3-(4-trifluoromethoxy-phenoxymethyl)-piperidine], for which the IC50 in test [1] (setting [4]) is less than 1000 nM; in test [2] (setting [5]), less than 1000 nM; in test [3] (setting [6]), less than 10 nM.
Consider `O=C(CN1CCCC(COc2ccc(C(F)(F)F)cc2)C1)C1(c2ccc(Cl)cc2)CCC1` (stereo not drawn) [compound 23, 1-[1-(4-Chlorophenyl)cyclobutyl]-2-[3-(4-trifluoromethyl-phenoxymethyl)piperidin-1-yl]ethanone], for which the IC50 in test [1] (setting [4]) is more than 1000 nM; in test [2] (setting [5]), less than 1000 nM; in test [3] (setting [6]), less than 100 nM.
With `FC(F)(F)c1ccc(OCC2CN(CC3(c4ccc(Cl)cc4)CCC3)C2)cc1` [compound 105, methanesulfonic acid 1-[1-(4-chloro-phenyl)-cyclobutylmethyl]-3-(4-trifluoromethyl-phenoxymethyl)-azetidine], the IC50 in test [1] (setting [4]) is less than 1000 nM; in test [2] (setting [5]), less than 100 nM; in test [3] (setting [6]), less than 10 nM.
On to `O=C(CN1CCC[C@@H](CCc2ccccc2)C1)c1ccc(Cl)cc1` [compound 145, (R)-1-(4-Chloro-phenyl)-2-(3-phenethyl-piperidin-1-yl)-ethanone], for which the IC50 in test [1] (setting [8]), in test [2] (setting [5]) and in test [3] (setting [6]) was less than 1000 nM in each case.
Consider `O=C(N1CCCOC(COc2ccc(C(F)(F)F)cc2)C1)C1(c2ccc(Cl)cc2)CCC1` (stereo not drawn) [compound 16, [1-(4-Chloro-phenyl)-cyclobutyl]-[2-(4-trifluoromethyl-phenoxymethyl)-[1,4]oxazepan-4-yl]-methanone], for which the IC50 in test [1] (setting [4]), in test [2] (setting [7]) and in test [3] was more than 1000 nM throughout.
Turning to `FC(F)(F)c1ccc(OCCC2CCCN(CC3(c4ccc(Cl)cc4)CCC3)C2)cc1` (stereo not drawn) [compound 39, 1-[1-(4-Chloro-phenyl)-cyclobutylmethyl]-3-[2-(4-trifluoromethyl-phenoxy)-ethyl]-piperidine], the figures for the IC50 in test [1] (setting [4]), in test [2] (setting [5]) and in test [3] (setting [6]) were more than 1000 nM, less than 100 nM and less than 10 nM, respectively.
Regarding `COc1ccccc1C1(C(O)CN2CCCC(COc3ccc4c(c3)OCO4)C2)CCC1` (stereo not drawn) [compound 232, 2-[3-(Benzo[1,3]dioxol-5-yloxymethyl)-piperidin-1-yl]-1-[1-(2-methoxy-phenyl)-cyclobutyl]-ethanol], the IC50 in test [1] (setting [4]), in test [2] (setting [5]) and in test [3] (setting [6]) was less than 1000 nM throughout.
For the compound `OC(CN1CCCC(COc2ccc(C(F)(F)F)cc2)C1)C1(c2ccc3c(c2)OCO3)CCC1` (stereo not drawn) [compound 165], the IC50 in test [1] (setting [4]) is less than 100 nM; in test [2] (setting [5]) it was less than 100 nM; in test [3] (setting [6]), less than 10 nM.
